Data taken from patent US20060228297A1, “Thorium-227 for use in radiotherapy of soft tissue disease” (priority 2003, published 2006).

Assays:
humans = test: Estimate of ^223Ra toxicity from prior art (translated from ^224Ra dog data); conditions: expected for humans, assuming similar haematological toxicity in dogs and humans
Text: Because of the lack of human data on toxicity of radium-223 and radium-224, an assumed radiotoxicity for ^223Ra can be derived as follows, using published data for radium-224 in dogs. The decay series (including the decays of daughter nuclides) of both ^224Ra and ^223Ra causes an emission of four alpha panicles per radium atoms. The total alpha particle doses from ^223Ra and ^224Ra in equilibrium with daughters are approximately 26.3 and 27.1 MeV per transformation respectively and are therefore closely equivalent. The half-lives of ^224Ra is 3.62 days and for ^223Ra it is 11.43 days. This means that per activity unit injected, the skeletal dose from ^223Ra would be approximately 3.1 times that from ^224Ra, taking into account alpha energy and half-life differences, and assuming long-term biological retention of the radionuclide (i.e., the clearance is governed by the physical half-life of the radionuclide). This is a valid assumption because Ra is a Ca analogue and is readily incorporated into the skeleton.
At 350 kBq/kg death, caused by haematological dyscrasia resulting from bone marrow destruction, occurred in some subjects (3 dogs out of 8). It may therefore be assumed that the maximum tolerable dose of ^224Ra is between 120 and 350 kBq/kg in dogs. Translated into ^223Ra, as described above, this would correspond to 39-113 kBq/kg of ^223Ra. […]

[1] = then concentrated in the skeleton or excreted via intestinal and renal routes; cited from earlier work
[2] = test system: patients with breast or prostate cancer; test: Phase I study of ^223Ra, single doses, neutrophil cell fractions (Example 8); assay type: in vivo, humans; conditions: for Days to nadir (neutrophil cell fraction) / ˜% of baseline at nadir (neutrophil cell fraction): humans
Text: In a phase I study in patients with breast or prostate cancer, dose levels of 37, 74, 130, 170 and 200 kBq/kg of ^223Ra were given as single doses. Neutrophil cell fractions were monitored as a sensitive measure of haematological toxicity.

In the case of `[223Ra]` [^223Ra, radium-223], the “Maximum tolerable dose, translated from ^224Ra dog data” value (humans) is listed as 39-113 kBq/kg, the Blood clearance [1] is listed as “very rapidly” and the “Dose that can be administered and tolerated” value ([2]; human subjects) is listed as “at least 200 kBq/kg”. The “Days to nadir (neutrophil cell fraction)” value ([2]; 37 kBq/kg single dose) was 14 days, the “˜% of baseline at nadir (neutrophil cell fraction)” value ([2]; 37 kBq/kg single dose) was about 60% and the “Days to nadir (neutrophil cell fraction)” value ([2]; 74 kBq/kg single dose) was 14 days. For the same compound, the “˜% of baseline at nadir (neutrophil cell fraction)” value ([2]; 74 kBq/kg single dose) was about 60%, the “Days to nadir (neutrophil cell fraction)” value ([2]; 130 kBq/kg single dose) was 28 days and the “˜% of baseline at nadir (neutrophil cell fraction)” value ([2]; 130 kBq/kg single dose) was about 50%. For the same compound, the “Days to nadir (neutrophil cell fraction)” value ([2]; 170 kBq/kg single dose) was 21 days, the “˜% of baseline at nadir (neutrophil cell fraction)” value ([2]; 170 kBq/kg single dose) was about 40% and the “Days to nadir (neutrophil cell fraction)” value ([2]; 200 kBq/kg single dose) was 21 days. For the same compound, the “˜% of baseline at nadir (neutrophil cell fraction)” value ([2]; 200 kBq/kg single dose) was about 30%.
